# Assay results from patent US11266674B2, “Pharmaceutical composition for tumor treatment or prevention, method, and use thereof” (SICHUAN KELUN-BIOTECH BIOPHARMACEUTICAL CO., LTD., priority 2017, dated 2022).
# Values joined by “and” are separate entries in the source; they are usually repeats but may differ in a detail not shown here. Equal entries are not always repeated.
# What was measured:
# [1] = test system: human hepatoma Hep3B cells; experiment: In vivo efficacy on subcutaneous xenograft of human hepatoma Hep3B cells in NU/NU nude mice; settings: compound 1.5 mg/kg, Sorafenib 30 mg/kg, combination 1.5 + 30 mg/kg; for Tumor volume (mm^3) Day 0: Day 0, at grouping (baseline)
# Experimental: (§1) This example aimed to evaluate the in vivo efficacy and tolerability of the pharmaceutical combination of the present invention in a NU/NU nude mouse model with human hepatoma Hep3B cell subcutaneous xenografts.
# (§2) Human hepatoma Hep3B cells were cultured as a monolayer in vitro, and the culture conditions were EMEM culture medium supplemented with 10% Fetal Bovine Serum, and incubation in an incubator at 37° C. and 5% CO2. The cells were subcultured by treatment with routine trypsin-EDTA digestion twice a week.
# 0.2 mL of a cell suspension (PBS:Matrigel=1:1) containing 1×10^6 Hep3B was inoculated subcutaneously into the right flank of each mouse. After the inoculated tumor reached an average size in the range of 100-200 mm^3, the grouping of animals was performed.
# (§3) 5 g of sodium carboxymethyl cellulose was weighed and placed in a 1000 mL wide-mouth bottle, 800 mL of ultrapure water was added, and the mixture was stirred to effect a solution, the volume of which was then filled up to 1000 mL, thereby obtaining the vehicle.
# (§4) An appropriate amount of the 4′-thionucleoside phosphamide derivative compound in the present invention was weighed, a certain amount of the vehicle was added, and a uniform suspension was obtained after mixing.
# (§5) An appropriate amount of Sorafenib was weighed, and dissolved by adding polyoxyethylene castor oil. Ethanol was added and evenly mixed, followed by addition of physiological saline, thereby obtaining a uniform suspension.
# (§6) Mice bearing a tumor having a volume of 100-200 mm^3 were selected, and randomized into groups (8 mice per group). The dosing volume was 10 mL/kg (in the group treated with the drug combination, the two drugs were administered individually at an interval of 4 hours), and the administration was performed by oral gavage (p.o.) every day for 20 days. The tumor volume, body weight of the animals and tumor weight were measured.
# (1) The Anti-Tumor Effect was Evaluated by Measuring the Tumor Volume.
# The equation for calculating the tumor volume is as follows: V=0.5a×b^2, wherein a and b respectively represent the major and minor diameters of a tumor.
# RTV=Vt/V0; wherein V0 is the average tumor volume measured at the time of grouping for administration (i.e., Day 0); and Vt is the average tumor volume measured on Day t.
# The anti-tumor efficacy was evaluated by tumor growth inhibition TGIvolume (%) and T/Cvolume (%). T/Cvolume (%)=TRTV/CRTV×100%; TGIvolume (%)=100%−T/Cvolume (%); wherein TRTV and CRTV are respectively RTVs of the treatment group and vehicle group at the end of the test.
# TGItumor weight (%) and T/Ctumor weight (%) were calculated based on tumor weight, and were used to evaluate the tumor inhibitory effect. The equation for calculation is as follows: T/Ctumor weight(%)=WTt/WCt×100%; TGItumor weight(%)=100%−T/Ctumor weight(%);
# WTt is the average tumor weight in the treatment group at the end of the test; and WCt is the average tumor weight in the vehicle group at the end of the test.
# The synergism was evaluated by Jin's equation q=EA+B/(EA+EB−EA×EB), wherein EA+B represents the efficacy achieved by the combination, and EA or EB represents the efficacy achieved by individual administration. In the present invention, the efficacy indicated in the equation refers to TGI %. When q<0.85, the combination administration is considered to achieve an antagonistic effect; when q=0.85-1.15, the combination administration is considered to achieve an additive effect; and when q>1.15, the combination administration is considered to achieve a synergistic effect.
# [2] = test system: human hepatoma Hep3B-luc cells; experiment: In vivo efficacy on orthotopic liver xenograft of human hepatoma Hep3B-luc cells in BALB/c nude mice; settings: compound 1.5 mg/kg, Sorafenib 30 mg/kg, combination 1.5 + 30 mg/kg; for The average bioluminescence value of tumor (photons/sec) Day 0: Day 0, at grouping (baseline); for T/Cfluorescence (%) / T/Ctumor weight (%) / TGIfluorescence (%) / TGItumor weight (%) / The average bioluminescence value of tumor (photons/sec) Day 28 / Tumor weight: Day 28, p.o. every day
# Experimental: This example aimed to evaluate the in vivo efficacy of the pharmaceutical combination of the present invention in a BALB/c nude mouse model with human hepatoma Hep3B-luc cell orthotopic xenografts.
# as §2, with “Hep3B-luc” for “Hep3B”, “week. When cell saturation was 80-90%, the number met the requirement, and the cells were harvested and counted.” for “week.”
# 20 μl of the cell suspension (PBS:Matrigel=1:1) containing about 3×10^6 Hep3B-Luc cells was injected into the left lobe of the liver of BALB/c-nude mice.
# as §3, §4, §5
# After inoculation, the tumor growth was assessed by real-time IVIS fluorescence imaging, and mice bearing a tumor with a bioluminescence value of about 1E+8 photons/sec were selected, and randomized into groups (10 mice per group). The dosing volume was 10 mL/kg (in the group treated with the drug combination, the two drugs were administered individually at an interval of 4 hours), and the administration was performed by oral gavage (p.o.) every day for 4 weeks. The tumor volume and tumor weight were measured and recorded by IVIS bioluminescence.
# The anti-tumor effect was evaluated by measuring the bioluminescence value, which reflects the tumor volume. The relative bioluminescence value (RB) was calculated by the measured average bioluminescence value, RB=Bt/B0, wherein B0 is the average bioluminescence value measured at the time of grouping for administration (i.e., Day 0); Bt is the average bioluminescence value measured on Day t. The anti-tumor efficacy was evaluated by tumor growth inhibition TGIfluorescence (%) and T/Cfluorescence (%). The equations for calculation are as follows: T/Cfluorescence(%)=TRB/CRB×100%; TGIfluorescence(%)=100%−T/Cfluorescence(%)
# wherein TRB and CRB are respectively the relative fluorescence values (RB) of the treatment group and vehicle group.
# The anti-tumor efficacy was evaluated by TGIfluorescence% or T/Cfluorescence%.
# The anti-tumor effect was evaluated by tumor weight according to a method same as that described in Example 1.
# (3) The Criteria for Determining Synergism were the Same as in Example 1.
# [3] = test system: mouse colon cancer MC38 cells expressing humanized PD-L1 (hPD-L1-MC38); experiment: In vivo efficacy on subcutaneous xenograft of mouse colon cancer hPD-L1-MC38 cells in C57BL/6J mice; settings: Day 28; compound 1.5 mg/kg p.o. every day, Tecentriq 10 mg/kg i.p. once every 2 days, combination 1.5 + 10 mg/kg
# Experimental: This example aimed to evaluate the in vivo efficacy of the pharmaceutical combination of the present invention in a C57BL/6J mouse model with subcutaneous xenograft of mouse colon cancer hPD-L1-MC38 cells expressing humanized PD-L1.
# hPD-L1-MC38 cells were cultured as a monolayer in vitro, and the culture conditions were 1640 culture medium supplemented with 10% Fetal Bovine Serum, and incubation in an incubator at 37° C. and 5% CO2. The cells were subcultured by treatment with routine trypsin-EDTA digestion three times a week.
# 0.1 mL of a PBS resuspension containing 2×10^5 hPD-L1-MC38 cells was inoculated subcutaneously at the right scapula of each mouse, and the grouping of animals was performed on the day of inoculation.
# as §3, §4
# An appropriate amount of the hPD-L1 inhibitor (Atezolizumab, trade name: Tecentriq® purchased from Roche Corporation, WHO Pharmaceutical Information (International Nonproprietary Name for Pharmaceutical Substances), Recommended INN: List 74, Vol. 29, No. 3, 2015 (see page 387)) was taken, physiological saline was added to obtain a solution of Tecentriq® at a concentration of 1 mg/mL.
# C57BL/6J mice were inoculated with hPD-L1-MC38 cells, randomized into groups (8 mice per group), and treated by administration on the same day of the inoculation. The dosing volume was 10 mL/kg (in the group treated with the drug combination, the two drugs were administered individually at an interval of 4 hours). The 4′-thionucleoside phosphamide derivative compound in the present invention was administered by oral gavage (p.o.) every day for 4 weeks, and Tecentriq was administered intraperitoneally (i.p.) once every 2 days for 4 weeks. The tumor weight was measured.
# The anti-tumor effect was evaluated by the measured tumor weight, and the method of measuring tumor weight and its evaluation were the same as those described in Example 1.
# [4] = Tolerability by body weight change of Hep3B cell tumor-bearing NU/NU nude mice; assay type: in vivo, mouse
# Experimental: as §1, §6
# (2) The Animal's Tolerance to a Drug was Evaluated by Animal Body Weight Change.
# The method for calculating the animal body weight change (%) is as follows: (Wt−W0)/W0×100%; W0: the animal's body weight at the time of grouping for administration (i.e., Day 0); Wt: the animal's body weight on day t of the test.
# Body weight change in the animals tested serve as a reference indicator for determining drug tolerance.
Molecule,Tumor volume (mm^3) Day 0 [1] [mm^3],"T/Ctumor weight (%) ([1]; Day 20, p.o. every day)","T/Cvolume (%) ([1]; Day 20, p.o. every day)","TGItumor weight (%) ([1]; Day 20, p.o. every day)","TGIvolume (%) ([1]; Day 20, p.o. every day)","Tumor weight ([1]; Day 20, p.o. every day)",The average bioluminescence value of tumor (photons/sec) Day 0 [2] [photons/sec],T/Cfluorescence (%) [2] [%],T/Ctumor weight (%) [2] [%],TGIfluorescence (%) [2] [%],TGItumor weight (%) [2] [%],The average bioluminescence value of tumor (photons/sec) Day 28 [2] [photons/sec],Tumor weight [2],T/Ctumor weight (%) [3] [%],TGItumor weight (%) [3] [%],Tumor weight [3],"weight loss ([4]; Day 20, Sorafenib 30 mg/kg p.o. every day, printed as loss) [%]","Body weight change (%) ([4]; Day 20, p.o. every day, compound 1.5 mg/kg, Sorafenib 30 mg/kg, combination 1.5 + 30 mg/kg, error range ±0.2%)","Tumor volume (mm^3) Day 20 ([1]; Day 20, p.o. every day)"
CC(C)OC(=O)C(C)NP(=O)(OCC1SC(n2ccc(N)nc2=O)C(F)C1O)Oc1ccccc1 (centres unmarked),137.67 ± 7.75,61.02,65.25,38.98,34.75,1.19 g and 1.19 ± 0.25 g,1.09E+8,103.43,77.93,−3.43,22.07,2.41E+10,3.46 g and 3.46 ± 1.17 g,95.16,4.84,3.54 g and 3.54 ± 0.41 g,–,–,–
CNC(=O)c1cc(Oc2ccc(NC(=O)Nc3ccc(Cl)c(C(F)(F)F)c3)cc2)ccn1 [Sorafenib],137.77 ± 7.92,38.97,42.86,61.03,57.14,0.76 g and 0.76 ± 0.17 g,1.09E+8,64.81,31.53,35.19,68.47,1.51E+10,1.40 g and 1.40 ± 0.82 g,–,–,–,8.31,−8.31,912.68 mm^3 and 912.68 ± 173.12 mm^3
Atezolizumab [Tecentriq],–,–,–,–,–,–,–,–,–,–,–,–,–,73.12,26.88,2.72 g and 2.72 ± 0.44 g,–,–,–
